Measured values: patent US8557848B2, “4,5-ring annulated indole derivatives for treating or preventing of HCV and related viral infections” (Merck Sharp & Dohme Corp., priority 2006, dated 2013)
Where two headings read alike, the source gives them in different places.

Legend:
[1] = target: T1, HCV NS5B polymerase (NS5BΔCT21, from HCV-Con 1 isolate, genotype 1b) (Hepatitis C virus genotype 1b, UniProt Q9WMX2); experiment: HCV NS5B Polymerase Inhibition Assay; type: biochemical
T1 construct: A soluble C-terminal 21-amino acid truncated NS5B enzyme form; polyhistidine (C); made in house; host or cells: Escherichia coli
Excerpt: A chemically synthesized 75-mer version, designated DCoH75, whose sequence matches the 3′-end of D-RNA, and DCoH75ddC, where the 3′-terminal cytidine of DCoH75 is replaced by dideoxycytidine, were used for assaying the NS5B enzyme activity as described in Ferrari et al., 12th International Symposium on HCV and Related Viruses, P-306 (2005). The sequence of the template RNA was: 5′-UGUGCCGGUCUUUCUGAACGGGAUAUAAACCUGGCCAGCUUCAUCGAACAAGUUGCCGUGUCUAUGACAUAGAUC-3′. A soluble C-terminal 21-amino acid truncated NS5B enzyme form (NS5BΔCT21, from HCV-Con 1 isolate, genotype 1b, Genbank accession number AJ238799) was produced and purified from Escherichia coli as C-terminal polyhistidine-tagged fusion protein as described in Ferrari et al., J. Virol. 73:1649-1654 (1999). A typical assay contained 20 mM Hepes pH 7.3, 10 mM MgCl2, 60 mM NaCl, 100 μg/ml BSA, 20 units/ml RNasin, 7.5 mM DTT, 0.1 μM ATP/GTP/UTP, 0.026 μM CTP, 0.25 mM GAU, 0.03 μM RNA template, 20 μCi/ml [^33P]-CTP, 2% DMSO, and 30 or 150 nM NS5B enzyme. Reactions were incubated at 22° C. for 2 hours, then stopped by adding 150 mM EDTA, washed in DE81 filter plate in 0.5M di-basic sodium phosphate buffer, pH 7.0, and counted using Packard TopCount after the addition of scintillation cocktail. Polynucleotide synthesis was monitored by the incorporation of radiolabeled CTP. The effect of the Compounds of Formula (I) on the polymerase activity was evaluated by adding various concentrations of a Compound of Formula (I), typically in 10 serial 2-fold dilutions, to the assay mixture. The starting concentrations ranged from 200 μM to 1 μM. An IC50 value for the inhibitor, defined as the compound concentration that provides 50% inhibition of polymerase activity, was determined by fitting the cpm data to the Hill equation Y=100/(1+10^((LogIC50-X)*HillSlope)), where X is the logarithm of compound concentration, and Y is the % inhibition. Ferrari et al., 12th International Symposium on HCV and Related Viruses, P-306 (2005) described in detail this assay procedure. It should be noted that such an assay as described is exemplary and not intended to limit the scope of the invention. The skilled practitioner can appreciate that modifications including but not limited to RNA template, primer, nucleotides, NS5B polymerase form, buffer composition, can be made to develop similar assays that yield the same result for the efficacy of the compounds and compositions described in the invention.
NS5B polymerase inhibition data for selected Compounds of Formula (I) is provided below in Table 2, wherein the compound numbers correspond to the compound numbering set forth in the above specification.

[2] = tested on: HCV replicon cells (replicon RNA level); experiment: Cell-Based HCV Replicon Assay; details: Hepatitis C virus, 72 h
Description: To measure cell-based anti-HCV activity of the a Compound of Formula (I), replicon cells were seeded at 5000 cells/well in 96-well collagen I-coated Nunc plates in the presence of the Compound of Formula (I). Various concentrations of a Compound of Formula (I), typically in 10 serial 2-fold dilutions, were added to the assay mixture, with the starting concentration ranging from 250 μM to 1 μM. The final concentration of DMSO was 0.5%, fetal bovine serum was 5%, in the assay media. Cells were harvested on day 3 by the addition of 1× cell lysis buffer (Ambion cat #8721). The replicon RNA level was measured using real time PCR (Taqman assay). The amplicon was located in 5B. The PCR primers were: 5B.2F, ATGGACAGGCGCCCTGA; 5B.2R, […]; the probe sequence was FAM-labeled CACGCCATGCGCTGCGG. GAPDH RNA was used as endogenous control and was amplified in the same reaction as NS5B (multiplex PCR) using primers and VIC-labeled probe recommended by the manufacturer (PE Applied Biosystem). The real-time RT-PCR reactions were run on ABI PRISM 7900HT Sequence Detection System using the following program: 48° C. for 30 min, 95° C. for 10 min, 40 cycles of 95° C. for 15 sec, 60° C. for 1 min. The ΔCT values (CT5B-CTGAPDH) were plotted against the concentration of test compound and fitted to the sigmoid dose-response model using XLfit4 (MDL). EC50 was defined as the concentration of inhibitor necessary to achieve ΔCT=1 over the projected baseline; EC90 the concentration necessary to achieve ΔCT=3.2 over the baseline. Alternatively, to quantitate the absolute amount of replicon RNA, a standard curve was established by including serially diluted T7 transcripts of replicon RNA in the Taqman assay. All Taqman reagents were from PE Applied Biosystems. Such an assay procedure was described in detail in e.g. Malcolm et al., Antimicrobial Agents and Chemotherapy 50: 1013-1020 (2006).
HCV Replicon assay data for selected Compounds of Formula (I) is provided below in Table 1, wherein the compound numbers correspond to the compound numbering set forth in the above specification.

[3] = NS5B polymerase inhibition, [33P]-CTP incorporation, 22° C. for 2 hours, read-out: IC50
[4] = replicon RNA level by real time PCR (Taqman), cells harvested on day 3, read-out: EC50

| Structure (SMILES) | IC50 [1, 3] | EC50 [2, 4] | IC50 [1] | EC50 [2] |
| --- | --- | --- | --- | --- |
| CCc1coc2c1ccc1c2c(-c2ccc[nH]c2=O)c(C(=O)NS(C)(=O)=O)n1Cc1cc(F)ccc1F [Compound 69] | > 100 nM | < 500 nM | – | – |
| CCc1coc2c1ccc1c2c(-c2ccc[nH]c2=O)c(C(=O)NS(C)(=O)=O)n1Cc1ccccc1F [Compound 70] | > 100 nM | > 1500 nM | – | – |
| Cc1cc2ccc3c(c(-c4ccc[nH]c4=O)c(C(=O)O)n3Cc3ccccc3F)c2o1 [Compound 76] | 25 to 100 nM | > 1500 nM | – | – |
| Nc1cc(Cn2c(C(=O)O)c(-c3ccc[nH]c3=O)c3c4occc4c(F)cc32)ccn1 [Compound 77] | < 25 nM | < 500 nM | – | – |
| O=C(O)c1c(-c2ccc[nH]c2=O)c2c3occc3c(F)cc2n1Cc1cc[nH]c(=O)c1 [Compound 78] | 25 to 100 nM | < 500 nM | – | – |
| O=C(O)c1c(-c2ccc[nH]c2=O)c2c3occc3c(F)cc2n1Cc1ccccc1F [Compound 79] | < 25 nM | < 500 nM | – | – |
| Nc1n[nH]c2cc(F)c(Cn3c(C(=O)O)c(-c4ccc[nH]c4=O)c4c5occc5c(F)cc43)cc12 [Compound 80] | – | < 500 nM | < 25 nM | – |
| NCc1cccc(Cn2c(C(=O)O)c(-c3ccc[nH]c3=O)c3c4occc4c(F)cc32)c1 [Compound 81] | < 25 nM | < 500 nM | – | – |
| NCc1ccc(Cn2c(C(=O)O)c(-c3ccc[nH]c3=O)c3c4occc4c(F)cc32)cc1 [Compound 82] | < 25 nM | < 500 nM | – | – |
| Cc1c[nH]c(=O)cc1Cn1c(C(=O)O)c(-c2ccc[nH]c2=O)c2c3occc3c(F)cc21 [Compound 83] | < 25 nM | < 500 nM | – | – |
| Cc1cc2ccc3c(c(-c4ccc[nH]c4=O)c(C(=O)O)n3Cc3cc(F)ccc3F)c2o1 [Compound 85] | < 25 nM | > 1500 nM | – | – |
| O=C(O)c1c(-c2ccc[nH]c2=O)c2c3occc3c(F)cc2n1Cc1cc(=O)[nH]cc1F [Compound 87] | < 25 nM | – | – | < 500 nM |
| O=C(O)c1c(-c2cccc(O)c2F)c2c3occc3c(F)cc2n1Cc1ccccc1F [Compound 88] | 25 to 100 nM | 500 to 1500 nM | – | – |
| O=C(O)c1c(-c2ccc[nH]c2=O)c2c3occc3c(F)cc2n1Cc1cc(F)ccc1F [Compound 89] | < 25 nM | < 500 nM | – | – |
| O=C(O)c1c(-c2ccc[nH]c2=O)c2c3occc3c(F)cc2n1Cc1ccc2nc[nH]c2c1 [Compound 91] | < 25 nM | < 500 nM | – | – |
| NC(=O)c1cccc(Cn2c(C(=O)O)c(-c3ccc[nH]c3=O)c3c4occc4c(F)cc32)c1 [Compound 92] | < 25 nM | < 500 nM | – | – |
| NC(=O)c1ccc(Cn2c(C(=O)O)c(-c3ccc[nH]c3=O)c3c4occc4c(F)cc32)cc1 [Compound 93] | < 25 nM | < 500 nM | – | – |
| NC(=O)c1ccc(F)c(Cn2c(C(=O)O)c(-c3ccc[nH]c3=O)c3c4occc4ccc32)c1 [Compound 94] | < 25 nM | < 500 nM | – | – |
| NCc1ccc(Cn2c(C(=O)O)c(-c3ccc[nH]c3=O)c3c4occc4c(F)cc32)c(F)c1 [Compound 95] | < 25 nM | < 500 nM | – | – |
| Cn1cc(F)c(Cn2c(C(=O)O)c(-c3ccc[nH]c3=O)c3c4occc4c(F)cc32)cc1=O [Compound 96] | < 25 nM | < 500 nM | – | – |

| Structure (SMILES) | IC50 [1, 3] | EC50 [2, 4] | IC50 [1] | EC50 [2] |
| --- | --- | --- | --- | --- |
| NC(=O)c1cc(Cn2c(C(=O)O)c(-c3ccc[nH]c3=O)c3c4occc4c(F)cc32)cs1 [Compound 97] | < 25 nM | < 500 nM | – | – |
| NC(=O)c1ncc(Cn2c(C(=O)O)c(-c3ccc[nH]c3=O)c3c4occc4c(F)cc32)s1 [Compound 98] | 25 to 100 nM | 500 to 1500 nM | – | – |
| NC(=O)c1cc(Cn2c(C(=O)O)c(-c3ccc[nH]c3=O)c3c4c(c(F)cc32)CCO4)cs1 [Compound 99] | < 25 nM | 500 to 1500 nM | – | – |
| Nc1n[nH]c2ccc(Cn3c(C(=O)O)c(-c4ccc[nH]c4=O)c4c5occc5c(F)cc43)cc12 [Compound 100] | < 25 nM | < 500 nM | – | – |
| Nc1nc2cc(Cn3c(C(=O)O)c(-c4ccc[nH]c4=O)c4c5occc5c(F)cc43)ccc2[nH]1 [Compound 101] | < 25 nM | < 500 nM | – | – |
| Nc1noc2ccc(Cn3c(C(=O)O)c(-c4ccc[nH]c4=O)c4c5occc5c(F)cc43)cc12 [Compound 102] | < 25 nM | < 500 nM | – | – |
| O=C(O)c1c(-c2ccc[nH]c2=O)c2c3occc3c(F)cc2n1Cc1ccc2[nH]c(=O)[nH]c2c1 [Compound 103] | < 25 nM | < 500 nM | – | – |
| COc1ccc([N+](=O)[O-])cc1Cn1c(C(=O)O)c(-c2ccc[nH]c2=O)c2c3occc3ccc21 [Compound 104] | < 25 nM | > 1500 nM | – | – |
| O=C(O)c1c(-c2ccc[nH]c2=O)c2c3occc3c(F)cc2n1Cc1cc2nc[nH]c2cc1F [Compound 105] | < 25 nM | < 500 nM | – | – |
| NC(=O)c1ccc(F)c(Cn2c(C(=O)O)c(-c3ccc[nH]c3=O)c3c4occc4c(F)cc32)c1 [Compound 107] | < 25 nM | < 500 nM | – | – |
| O=C(O)c1ccc(F)c(Cn2c(C(=O)O)c(-c3ccc[nH]c3=O)c3c4occc4c(F)cc32)c1 [Compound 108] | < 25 nM | 500 to 1500 nM | – | – |
| NC(=O)c1cnc(F)c(Cn2c(C(=O)O)c(-c3ccc[nH]c3=O)c3c4occc4c(F)cc32)c1 [Compound 109] | < 25 nM | < 500 nM | – | – |
| O=C(O)c1c(-c2ccc[nH]c2=O)c2c3occc3c(F)cc2n1Cc1cc([N+](=O)[O-])ccc1F [Compound 111] | < 25 nM | < 500 nM | – | – |
| NC(=O)c1cnc(F)c(Cn2c(C(=O)O)c(-c3ccc[nH]c3=O)c3c4c(c(F)cc32)CCO4)c1 [Compound 113] | < 25 nM | < 500 nM | – | – |
| O=C(O)c1c(-c2ccc[nH]c2=O)c2c3occc3c(F)cc2n1Cc1cc(=O)[nH]c2ccccc12 [Compound 114] | – | < 500 nM | < 25 nM | – |
| O=C(O)c1c(-c2ccc[nH]c2=O)c2c3occc3c(F)cc2n1Cc1cc2ccccc2[nH]c1=O [Compound 115] | < 25 nM | < 500 nM | – | – |
| O=C(O)c1c(-c2ccc[nH]c2=O)c2c3occc3ccc2n1Cc1cc2ccccc2nc1Cl [Compound 116] | < 25 nM | < 500 nM | – | – |
| O=C(O)c1c(-c2ccc[nH]c2=O)c2c3occc3c(F)cc2n1Cc1nc2ccccc2[nH]c1=O [Compound 117] | < 25 nM | < 500 nM | – | – |
| O=C(O)c1c(-c2ccc[nH]c2=O)c2c3occ(Cl)c3c(F)cc2n1Cc1cc(F)ccc1F [Compound 119] | < 25 nM | < 500 nM | – | – |
